According to patent US9707244B2, “Compositions and methods for treating conditions that affect epidermis” (Gencia Corporation, priority 2013, dated 2017):

System: EpiDerm Full Thickness 400 (EFT-400) tissues
Assay: Mattek full-thickness skin model (EFT-400) skin thickness
Format: cell-based
Settings: 14 days; average over the three corticosteroids (100 nM dexamethasone, 50 nM betamethasone, 10 nM Clobetasol); p<0.001
Protocol: Following the protocol of Schoepe, we used the FTSM model to determine if co-treatment with Mitocreatine would reduce the loss in skin thickness produced by glucocorticoids.
2.5 mL of EpiDerm Full Thickness 400 (EFT-400) medium was dispensed into each well of the four 6-well plates aseptically in the tissue culture hood. The plates containing the EFT-400 tissues were removed from their plastic packaging and transferred using sterile forceps into the 6-well plates containing the 2.5 mL of EFT-400 media, making sure that no agarose adheres to the insert and that the media makes full contact with the underside of the tissue insert membrane (no air bubbles under the insert). The apical surface of the tissue should remain exposed to air (no media should be added to the side of the insert).
The tissues were equilibrated overnight at 37° C., 5% CO2. Treatment conditions are listed below in Table 5.
Day 2-13: The plates were visually examined and the media containing the test compounds was replenished each day.
Day 15: The inserts were dislodged from the support and the tissue carefully removed from the support with a scalpel.
The tissues were placed in 50 mL conical tubes containing 10% phosphate buffered formalin and sent for sectioning, histological processing and H&E staining Slides were visualized using a Leica Stereoscope equipped with a digital camera. Images were acquired and measured using ExoLabs software. Data was tabulated in Excel and the results were analyzed.

| reduction in skin thickness (FTSM) | SMILES |
| --- | --- |
| 26% | C[C@H]1C[C@H]2[C@@H]3CCC4=CC(=O)C=C[C@]4(C)[C@@]3(F)[C@@H](O)C[C@]2(C)[C@@]1(O)C(=O)CO [betamethasone] |
| 26% | C[C@@H]1C[C@H]2[C@@H]3CCC4=CC(=O)C=C[C@]4(C)[C@@]3(F)[C@@H](O)C[C@]2(C)[C@@]1(O)C(=O)CO [dexamethasone] |

| SMILES | reduction in skin thickness (FTSM) |
| --- | --- |
| C[C@H]1C[C@H]2[C@@H]3CCC4=CC(=O)C=C[C@]4(C)[C@@]3(F)[C@@H](O)C[C@]2(C)[C@@]1(O)C(=O)CCl [Clobetasol] | 26% |
